≈ marks a conversion by molar mass, not a printed value.
Key:
[1] = test system: Aspergillus fumigatus SANK 10569; experiment: In vitro antifungal activity (MIC), Aspergillus fumigatus; type: cell-based; conditions: SANK10569, MIC = lowest concentration causing at least 80% growth inhibition (IC80), RPMI1640 pH 7.0, 30° C., trans isomers
Method: (§1) The antifungal activities of test compounds were assessed according to their minimum inhibitory concentrations (MICs) which were measured by the methods described below.
(§2) Liquid medium: RPMI1640 medium which was buffered to pH 7.0 (without an indicator) with 0.165M 3-(morpholino)propanesulfonic acid was used for Candida albicans and Aspergillus fumigatus. Yeast Nitrogen Base medium which was buffered to pH 7.0 with 0.165M 3-(morpholino)propanesulfonic acid was used for Cryptococcus neoformans.
(§3) Preparation of inoculation fungi solution: Each test fungi solution of Candida albicans and Cryptococcus neoformans was incubated on Sabouraud agar medium at 35° C. for 48 hours. About five colonies of the test fungi having 1 mm diameter were suspended in physiological saline and the transmittance of the suspension was adjusted to Macfarland 0.5 degree. A one thousand-fold diluted suspension of the resulting suspension was prepared by dilution with the liquid medium described above and was used for Candida albicans. A one hundred-fold diluted suspension of the resulting suspension was prepared by dilution with the liquid medium described above and was used for Cryptococcus neoformans. Aspergillus fumigatus was incubated on Potato dextrose agar at 35° C. for five days. Spores on the agar medium were collected with physiological saline containing 0.05% Tween 80 and the number of spores was adjusted to 2.5×10^7/ml using a blood cell counter. A one thousand-fold diluted suspension was prepared by dilution of the resulting spore suspension with the liquid medium described above and was used for Aspergillus fumigatus.
(§4) Preparation of test compound solution: Each test compound was dissolved in 100% dimethyl sulfoxide and serial two-fold dilutions of each compound were prepared with 100% dimethyl sulfoxide. The final concentration of dimethyl sulfoxide was adjusted to not greater than 1% by dilution with each liquid medium described above respectively.
(§5) Assessment method: Each diluted test compound (100 μl), the inoculation fungi solution (80 μl) and Alamar blue solution (20 μl) was sequentially added to each of wells of microtiter plate having 96 wells. The resulting mixture was incubated at 35° C. (30° C. for Aspergillus fumigatus). When the light absorbance at 570 nm of growth control exceeded 0.6, the MICs were determined. The MICs were defined as the lowest compound concentrations causing at least 80% growth inhibition (IC80) compared with the control to which the test compound was not added.

[2] = test system: Cryptococcus neoformans TIMM 1855; experiment: In vitro antifungal activity (MIC), Cryptococcus neoformans; type: cell-based; conditions: TIMM1855, MIC = lowest concentration causing at least 80% growth inhibition (IC80), Yeast Nitrogen Base pH 7.0, 35° C., trans isomers
Method: as §1, §2, §3, §4, §5

[3] = test system: Candida albicans SANK 51486; experiment: In vitro antifungal activity (MIC), Candida albicans; type: cell-based; conditions: SANK51486, MIC = lowest concentration causing at least 80% growth inhibition (IC80), RPMI1640 pH 7.0, 35° C., trans isomers
Method: as §1, §2, §3, §4, §5

Row | MIC [1] | melting point | MIC [2] | MIC [3] | SMILES
1 | 0.125 µg/mL (≈ 0.179 µM) | 156 °C | 0.063 µg/mL (≈ 0.0904 µM) | 0.016 µg/mL (≈ 0.023 µM) | C[C@@H](S[C@H]1CO[C@H](c2ccc(C(=O)Nc3ccc(OCC(F)(F)C(F)F)cc3)cc2)OC1)[C@](O)(Cn1cncn1)c1ccc(F)cc1F [Example 1, 4-[trans-5-[[(1R,2R)-2-(2,4-Difluorophenyl)-2-hydroxy-1-methyl-3-(1H-1,2,4-triazol-1-yl)propyl]thio]-1,3-dioxan-2-yl]-4′-(2,2,3,3-tetrafluoropropoxy)benzanilide]
2 | 0.063 µg/mL (≈ 0.0982 µM) | 114 °C | 0.063 µg/mL (≈ 0.0982 µM) | ≤ 0.008 µg/mL | C[C@@H](S[C@H]1CO[C@H](c2ccc3cc(C(=O)Nc4ccc(C#N)cc4)ccc3c2)OC1)[C@](O)(Cn1cncn1)c1ccc(F)cc1F [Example 3, 4′-Cyano-6-[trans-5-[[(1R,2R)-2-(2,4-difluorophenyl)-2-hydroxy-1-methyl-3-(1H-1,2,4-triazol-1-yl)propyl]thio]-1,3-dioxan-2-yl]-2-naphthoanilide]
3 | 0.25 µg/mL (≈ 0.413 µM) | 188 °C | 0.25 µg/mL (≈ 0.413 µM) | 0.016 µg/mL (≈ 0.0264 µM) | C[C@@H](S[C@H]1CO[C@H](c2ccc(C(=O)NCc3ccc(C#N)cc3)cc2)OC1)[C@](O)(Cn1cncn1)c1ccc(F)cc1F [Example 26, N-(4-Cyanobenzyl)-4-[trans-5-[[(1R,2R)-2-(2,4-difluorophenyl)-2-hydroxy-1-methyl-3-(1H-1,2,4-triazol-1-yl)propyl]thio]-1,3-dioxan-2-yl]benzamide]
4 | 0.5 µg/mL (≈ 0.858 µM) | 254 °C | 0.25 µg/mL (≈ 0.429 µM) | 0.016 µg/mL (≈ 0.0275 µM) | C[C@@H](S[C@H]1CO[C@H](c2ccc(C(=O)Nc3ccc(O)cc3)cc2)OC1)[C@](O)(Cn1cncn1)c1ccc(F)cc1F [Example 23, 4-[trans-5-[[(1R,2R)-2-(2,4-Difluorophenyl)-2-hydroxy-1-methyl-3-(1H-1,2,4-triazol-1-yl)propyl]thio]-1,3-dioxan-2-yl]-4′-hydroxybenzanilide]
5 | 2 µg/mL (≈ 3.33 µM) | 90 °C | 0.25 µg/mL (≈ 0.416 µM) | ≤ 0.008 µg/mL | C[C@@H](S[C@H]1CO[C@H](c2cccc(C(=O)Nc3ccc(Cl)cc3)c2)OC1)[C@](O)(Cn1cncn1)c1ccc(F)cc1F [Example 9, 4′-Chloro-3-[trans-5-[[(1R,2R)-2-(2,4-difluorophenyl)-2-hydroxy-1-methyl-3-(1H-1,2,4-triazol-1-yl)propyl]thio]-1,3-dioxan-2-yl]benzanilide]
6 | 4 µg/mL (≈ 8.94 µM) |  | 0.25 µg/mL (≈ 0.559 µM) | 0.063 µg/mL (≈ 0.141 µM) | C[C@@H](SC1COC(c2ccccc2)OC1)[C@](O)(Cn1cncn1)c1ccc(F)cc1F (some centres unmarked) [Comparative compound (A), reference compound]

— patent US6653330B2, “Amide-type triazole compounds” (Sankyo Company, Limited, priority 2000, dated 2003)
